The numbers were not newly measured in US9315472B2, “1,3,5-triazinane-2,4,6-trione derivatives and uses thereof” (Massachusetts Institute of Technology, priority 2013, dated 2016), which cites them from elsewhere.

Read-outs that look alike come from different tables or passages of the source.

The conditions of data set [1]: rat, in vivo, po.
For data set [2] the following is noted: mouse, in vivo, po.

In the case of `O=c1n(CC2CO2)c(=O)n(CC2CO2)c(=O)n1CC1CO1` (centres unmarked) [Compound 1], the tolerability entry in data set [1] and in data set [2] was “tolerated” in each case.
